Reference: ChEMBL document CHEMBL3861944 (Medchemcomm, 2016)

Experiments:
THP-1 [1] = test: Pro-apoptotic activity in human THP1 cells assessed as late apoptotic cells at 10 uM after 24 hrs by annexin V/propidium iodide staining-based flow cytometric method (reference value: 0.4 +/- 0.1%); type: functional
ASPC1 [2] = test: Pro-apoptotic activity in human AsPC1 cells assessed as early apoptotic cells at 1 uM after 24 hrs by annexin V/propidium iodide staining-based flow cytometric method (reference value: 0.8 +/- 0.1%); type: functional
[3] = Cell cycle arrest in human THP1 cells assessed as accumulation at G0/G1 phase at 3 uM after 24 hrs by flow cytometric method (reference value: 51 +/- 6%); type: functional, cell-based; details: THP-1
[4] = Cell cycle arrest in human AsPC1 cells assessed as accumulation at G2/M phase at 75 uM after 24 hrs by flow cytometric method (reference value: 29 +/- 5%); type: functional, cell-based
THP-1 [5] = test: Pro-apoptotic activity in human THP1 cells assessed as late apoptotic cells at 0.75 uM after 24 hrs by annexin V/propidium iodide staining-based flow cytometric method (reference value: 0.4 +/- 0.1%); type: functional
ASPC1 [6] = test: Pro-apoptotic activity in human AsPC1 cells assessed as late apoptotic cells at 75 uM after 24 hrs by annexin V/propidium iodide staining-based flow cytometric method (reference value: 0.8 +/- 0.1%); type: functional
THP-1 [7] = test: Pro-apoptotic activity in human THP1 cells assessed as necrotic cells at 0.5 uM after 24 hrs by annexin V/propidium iodide staining-based flow cytometric method relative to control; type: functional
[8] = Cell cycle arrest in human THP1 cells assessed as decrease in cell levels at G0/G1 phase after 24 hrs by flow cytometric method; type: functional, cell-based; details: THP-1

Which results are given for NC(=[Se])N/N=C/c1cccc2cccnc12?
Activity (THP-1 [1]): 49%; Activity (ASPC1 [2]): 0.2%; Activity [3]: 43%; Activity [4]: 14.4%; Activity (THP-1 [5]): 2.4%; Activity (ASPC1 [6]): 4.1%; Activity (THP-1 [7]): 0.7%; Activity [8]: Dose-dependent effect
